Experiments:
[1] = molecular target: T1, mu opioid receptor (MOR) (Homo sapiens, UniProt P35372); assay: PathHunter β-arrestin recruitment assay, PAM mode with EC20 endomorphin-1; format: cell-based; details: for EC50: read-out: β-arr. EC50
Procedure: The effects of MOR PAMs and MOR SAMs on receptor activity were assayed using the PathHunter enzyme complementation assay technology (DiscoveRx, CA). A description of the technology employed is as follows.
Beta-Arrestin Pathway: The PathHunter β-arrestin assay monitors the activation of a GPCR in a homogenous, non-imaging assay format using a technology developed by DiscoveRx called Enzyme Fragment Complementation (EFC) with beta-galactosidase (β-Gal) as the functional reporter. […] EA is fused to β-Arrestin and ED is fused to the GPCR of interest. When the GPCR is activated and β-arrestin is recruited to the receptor, ED and EA complementation occurs, restoring β-gal activity, which is measured using chemiluminescent PathHunter Detection Reagents.
In this manner an EC50 for each test compound, and percent maximal response for each test compound, were determined for both the β-arrestin and cAMP pathways. Though the pharmacological effects of a given signal bias can be hypothesized (Raehal et al. (2011) Pharmacol. Rev. 63:1001-1019), it is not possible to know with certainty which bias ratio will be most advantageous in a clinical setting. […] Kenakin 2015a, supra. The information associated with the compounds detailed herein is the first large data set available for the prediction of ligand bias for an MOR PAM.

[2] = molecular target: T1, mu opioid receptor (MOR); assay: Hit Hunter cAMP signaling assay (adenylyl cyclase inhibition), PAM mode with EC20 endomorphin-1; format: cell-based
[3] = maximal response, β-arrestin recruitment
[4] = cAMP EC50, adenylyl cyclase inhibition
[5] = maximal response, adenylyl cyclase inhibition
[6] = maximal response for β-arrestin recruitment
[7] = maximal response for adenylyl cyclase inhibition
[8] = adenylyl cyclase inhibition, read-out: cAMP EC50

T1 sequence (P35372 whole entry): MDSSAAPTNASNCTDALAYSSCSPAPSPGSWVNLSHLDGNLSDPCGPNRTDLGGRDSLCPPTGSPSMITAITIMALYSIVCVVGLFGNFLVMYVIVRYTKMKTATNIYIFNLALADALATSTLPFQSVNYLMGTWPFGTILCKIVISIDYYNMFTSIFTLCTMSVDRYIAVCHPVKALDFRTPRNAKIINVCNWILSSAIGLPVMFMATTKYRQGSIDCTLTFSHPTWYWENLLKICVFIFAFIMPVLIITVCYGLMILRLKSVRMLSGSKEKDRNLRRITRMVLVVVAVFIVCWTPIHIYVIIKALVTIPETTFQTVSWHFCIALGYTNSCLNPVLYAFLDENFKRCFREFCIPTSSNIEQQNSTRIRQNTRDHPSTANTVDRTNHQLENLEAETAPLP

SMILES	β-arr Max. Resp. [1, 3]	EC50 ([1]; β-arrestin recruitment)	EC50 [2, 4]	cAMP Max. Resp. [2, 5]	β-arr Max. Resp. [1, 6]	cAMP Max. Resp. [2, 7]	EC50 [2, 8]
Fc1ccc(Cl)cc1CN1C2CCC(C2)C1c1cccc(C(F)(F)F)n1 (stereo not shown) [compound 444]	F (F represents a maximal response of > 60%)	> 2100 nM	> 2100 nM	D (D represents a maximal response of < 40%)	–	–	–
Fc1cc(C2CC(F)(F)CCN2c2nc(Cl)ncc2F)cc(C(F)(F)F)c1 (stereo not shown) [compound 198]	–	700 to 2100 nM	700 to 2100 nM	–	F (F represents a maximal response of > 60%)	F (F represents a maximal response of > 60%)	–
Fc1ccc(C2COCCN2Cc2cc(Cl)ccc2F)cc1Cl (racemic) [Compound 194]	–	700 to 2100 nM	–	–	F (F represents a maximal response of > 60%)	D (D represents a maximal response of < 40%)	700 to 2100 nM
[N-]=[N+]=Nc1cccc(C2CCCCN2Cc2cc(Cl)ccc2F)n1 (stereo not shown) [compound 144]	–	> 2100 nM	> 2100 nM	–	E (E represents a maximal response of 40-60%)	D (D represents a maximal response of < 40%)	–
O=S(=O)(c1ccc(Cl)cc1)N1CCCCC1c1ccc(Cl)c(C(F)(F)F)c1 (racemic) [compound 64]	–	700 to 2100 nM	–	–	F (F represents a maximal response of > 60%)	D (D represents a maximal response of < 40%)	700 to 2100 nM
COc1cnc(Cl)nc1N1CCCCC1c1cccc(C(F)(F)F)c1 (stereo not shown) [compound 361]	–	< 700 nM	< 700 nM	–	D (D represents a maximal response of < 40%)	D (D represents a maximal response of < 40%)	–
Cc1cc(C2CCCCN2S(=O)(=O)c2ccc(Cl)cc2)ccn1 (racemic) [compound 77]	–	> 2100 nM	–	–	F (F represents a maximal response of > 60%)	D (D represents a maximal response of < 40%)	> 2100 nM
O=S(=O)(c1ccc(Cl)cc1)N1CCCCC1c1ccc2c(c1)CCO2 (racemic) [compound 66]	–	> 2100 nM	–	–	F (F represents a maximal response of > 60%)	E (E represents a maximal response of 40-60%)	> 2100 nM
O=S(=O)(c1cccc(Cl)c1)N1C2CCC(C2)C1c1ccc(F)c(Br)c1 (stereo not shown) [Compound 180]	–	> 2100 nM	–	–	F (F represents a maximal response of > 60%)	E (E represents a maximal response of 40-60%)	> 2100 nM
CC1CCN(S(=O)(=O)c2ccc(Cl)cc2)C1c1ccc2c(c1)OCO2 (mixture of isomers) [Compound 96]	–	> 2100 nM	–	–	F (F represents a maximal response of > 60%)	D (D represents a maximal response of < 40%)	> 2100 nM
Cc1ccc(C2CCCCN2S(=O)(=O)c2ccc(Cl)cc2)cc1Br (racemic) [compound 70]	–	> 2100 nM	–	–	F (F represents a maximal response of > 60%)	E (E represents a maximal response of 40-60%)	> 2100 nM
Fc1cc(Cl)cc(C2CCCCN2c2nc(Cl)ncc2F)c1 (single isomer, unassigned) [compound 404]	–	< 700 nM	< 700 nM	–	D (D represents a maximal response of < 40%)	D (D represents a maximal response of < 40%)	–
COc1ccc(C2CCCCN2c2cccc(C(F)(F)F)n2)cc1Br (stereo not shown) [compound 227]	–	> 2100 nM	> 2100 nM	–	F (F represents a maximal response of > 60%)	F (F represents a maximal response of > 60%)	–
Fc1cnc(Cl)nc1N1CCC(F)(F)CC1c1cccc(C(F)(F)F)c1 (stereo not shown) [compound 199]	–	< 700 nM	700 to 2100 nM	–	F (F represents a maximal response of > 60%)	E (E represents a maximal response of 40-60%)	–
[2H]C1(c2ccc(F)c(Br)c2)C(F)CCCN1S(=O)(=O)c1ccc(Cl)cc1 (stereo not shown) [Compound 29]	–	–	–	–	F (F represents a maximal response of > 60%)	E (E represents a maximal response of 40-60%)	–
Cc1nc(C2CCCCN2c2nc(Cl)ncc2F)no1 (stereo not shown) [compound 409]	–	< 700 nM	< 700 nM	–	D (D represents a maximal response of < 40%)	D (D represents a maximal response of < 40%)	–
Fc1cnc(Cl)nc1N1CCSCC1c1cccc(C(F)(F)F)c1 (stereo not shown) [Compound 456]	F (F represents a maximal response of > 60%)	> 2100 nM	–	E (E represents a maximal response of 40-60%)	–	–	> 2100 nM
Cc1noc(C2CCCCN2c2nc(Cl)ncc2F)n1 (stereo not shown) [compound 358]	–	< 700 nM	< 700 nM	–	D (D represents a maximal response of < 40%)	D (D represents a maximal response of < 40%)	–
CC1CCN(S(=O)(=O)c2ccc(Cl)cc2)C1c1ccc(F)c(C#N)c1 (mixture of isomers) [Compound 93]	–	700 to 2100 nM	–	–	E (E represents a maximal response of 40-60%)	D (D represents a maximal response of < 40%)	> 2100 nM
Fc1ccc(C(F)(F)F)cc1C1CCCCN1c1nc(Cl)ncc1F (stereo not shown) [compound 353]	–	< 700 nM	< 700 nM	–	D (D represents a maximal response of < 40%)	D (D represents a maximal response of < 40%)	–
COc1ccc(C2CCCCN2S(=O)(=O)C2CC2)cc1Br (stereo not shown) [compound 15]	–	> 2100 nM	> 2100 nM	–	E (E represents a maximal response of 40-60%)	E (E represents a maximal response of 40-60%)	–
Cc1nccc(N2CCCCC2c2cncc(Cl)n2)n1 (stereo not shown) [compound 396]	–	< 700 nM	< 700 nM	–	D (D represents a maximal response of < 40%)	D (D represents a maximal response of < 40%)	–
FC(F)(F)c1cccc(C2CCCCN2Cc2cccc(Cl)n2)n1 (stereo not shown) [compound 165]	–	> 2100 nM	700 to 2100 nM	–	F (F represents a maximal response of > 60%)	F (F represents a maximal response of > 60%)	–
Fc1cnc(Cl)nc1N1CCCCC1c1cc(Cl)ccn1 (stereo not shown) [compound 408]	–	< 700 nM	< 700 nM	–	D (D represents a maximal response of < 40%)	D (D represents a maximal response of < 40%)	–
COc1ccc(C2C3CCC(C3)N2c2nc(Cl)ncc2F)cc1Br (stereo not shown) [compound 138]	–	> 2100 nM	> 2100 nM	–	D (D represents a maximal response of < 40%)	D (D represents a maximal response of < 40%)	–
Cc1cnc(Cl)nc1N1CCCCC1c1cccc(C(F)(F)F)c1 (stereo not shown) [compound 265]	–	> 2100 nM	> 2100 nM	–	F (F represents a maximal response of > 60%)	E (E represents a maximal response of 40-60%)	–
Fc1cc(C2CC(C(F)(F)F)CN2c2nc(Cl)ncc2F)cc(C(F)(F)F)c1 (stereo not shown) [compound 457]	F (F represents a maximal response of > 60%)	> 2100 nM	–	E (E represents a maximal response of 40-60%)	–	–	> 2100 nM
